These results are taken from patent publication US7820722B2, “Permeation enhancers” (Merrion Research III Limited, priority 2001, dated 2010).

Strand notation (5' to 3'): a small letter for the sugar, then the base; units joined by * are phosphorothioate-linked, units joined directly phosphodiester-linked; [ ] holds rarer units or linkages, { } end groups; capitals alone tell only the bases. e = 2'-O-(2-methoxyethyl) (MOE); [5mC] = 5-methylcytosine; d = 2'-deoxy (DNA)

Data set [1] can be described thus: Solubility of the enhancer system in phosphate buffer saline.
The nature of data set [2]: Bioavailability of antisense oligonucleotide after intra-jejunal dosing through a catheter, plasma level by anion-exchange chromatography (Example 3). It counts as in vivo, male rhesus monkeys. The conditions noted are these: rhesus monkey, po. An excerpt: The compositions were compared by administering them in solution form through a catheter to test subjects. A jejunal catheter is surgically implanted in six male rhesus monkeys (3-5 years, 3-5 Kg) under anesthesia. The catheters are attached to a subcutaneous access port to allow dosing through the port into the jejunum. The animals are allowed to recover at least 7 days prior to dosing. […] The antisense oligonucleotide is detected by anion-exchange chromatography. The formulations and the measurements of bioavailability, Tmax and plasma peak of antisense oligonucleotide after administration of formulations are described in the chart below.

Turning to `CCCCCCCCCCC(CCCCCCCC)C(=O)[O-].[Na+]` (centres unmarked) [sodium 2-n-octyl-dodecanoate], in data set [1], the “Solubility in phosphate buffer saline” value is “not fully soluble”.

As to “antisense oligonucleotide: 5-10-5 MOE gapmer phosphorothioate, 5-methylcytosines, targets human TNF-α; GCTGATTAGAGAGAGGTCCC (antisense eG*e[5mC]*eT*eG*eA*dT*dT*dA*dG*dA*dG*dA*dG*dA*dG*eG*eT*e[5mC]*e[5mC]*e[5mC])”, in data set [2], the “permeability without any permeation enhancer systems” value was “poor permeability”.
